According to ChEMBL document CHEMBL1141575, “Preparation and in vitro biological evaluation of tetrapyrrole ethanolamide derivatives as potential anticancer agents” (Bioorg Med Chem Lett, 2008):

Tests used:
[1] = Photohemolysis in human RBC in absence of light; type: ADME, cell-based; details: erythrocyte
K562 [2] = assay: Survival of human K562 cells at 10 uM under deem light after 96 hrs by MTT assay relative to control; type: functional; details: K562, 96 h, read-out: Survival
HeLa [3] = assay: Survival of human HeLa cells at 10 uM under deem light after 96 hrs by MTT assay relative to control; type: functional; details: read-out: Survival
NCI-H69 [4] = assay: Survival of human H69 cells at 0.01 uM under deem light after 96 hrs by MTT assay relative to control; type: functional; details: NCI-H69, 96 h, read-out: Survival
HeLa [5] = assay: Survival of human HeLa cells at 0.01 uM under deem light after 96 hrs by MTT assay relative to control; type: functional; details: read-out: Survival
[6] = Survival of human MDA-MB cells at 50 uM under deem light after 96 hrs by MTT assay relative to control; type: functional; details: read-out: Survival
Raji [7] = assay: Survival of human Raji cells at 0.1 uM under deem light after 96 hrs by MTT assay relative to control; type: functional; details: read-out: Survival
SiHa [8] = assay: Cytotoxicity against human SIHA cells under deem light after 96 hrs by MTT assay; type: functional, cell-based
[9] = Survival of human MDA-MB cells at 10 uM under deem light after 96 hrs by MTT assay relative to control; type: functional; details: read-out: Survival
SiHa [10] = assay: Survival of human SIHA cells at 10 uM under deem light after 96 hrs by MTT assay relative to control; type: functional; details: read-out: Survival
Raji [11] = assay: Survival of human Raji cells at 10 uM under deem light after 96 hrs by MTT assay relative to control; type: functional; details: read-out: Survival
NCI-H69 [12] = assay: Survival of human H69 cells at 50 uM under deem light after 96 hrs by MTT assay relative to control; type: functional; details: NCI-H69, 96 h, read-out: Survival
NCI-H69 [13] = assay: Cytotoxicity against human H69 cells under deem light after 96 hrs by MTT assay; type: functional, cell-based; details: NCI-H69, 96 h
Raji [14] = assay: Survival of human Raji cells at 50 uM under deem light after 96 hrs by MTT assay relative to control; type: functional; details: read-out: Survival
[15] = Survival of human H209 cells at 10 uM under deem light after 96 hrs by MTT assay relative to control; type: functional; details: NCI-H209, 96 h, read-out: Survival
[16] = Survival of human H209 cells at 0.01 uM under deem light after 96 hrs by MTT assay relative to control; type: functional; details: NCI-H209, 96 h, read-out: Survival
[17] = Survival of human MDA-MB cells at 100 uM under deem light after 96 hrs by MTT assay relative to control; type: functional; details: read-out: Survival
[18] = Cytotoxicity against human 2780.9S cells under deem light after 96 hrs by MTT assay; type: functional, cell-based
[19] = Survival of human 2780.9S cells at 10 uM under deem light after 96 hrs by MTT assay relative to control; type: functional; details: read-out: Survival
Raji [20] = assay: Cytotoxicity against human Raji cells under deem light after 96 hrs by MTT assay; type: functional, cell-based
[21] = Survival of human H209 cells at 50 uM under deem light after 96 hrs by MTT assay relative to control; type: functional; details: NCI-H209, 96 h, read-out: Survival
K562 [22] = assay: Survival of human K562 cells at 0.1 uM under deem light after 96 hrs by MTT assay relative to control; type: functional; details: K562, 96 h, read-out: Survival
[23] = Survival of human 2780.9S cells at 100 uM under deem light after 96 hrs by MTT assay relative to control; type: functional; details: read-out: Survival
Raji [24] = assay: Survival of human Raji cells at 100 uM under deem light after 96 hrs by MTT assay relative to control; type: functional; details: read-out: Survival
HeLa [25] = assay: Survival of human HeLa cells at 100 uM under deem light after 96 hrs by MTT assay relative to control; type: functional; details: read-out: Survival
SiHa [26] = assay: Survival of human SIHA cells at 50 uM under deem light after 96 hrs by MTT assay relative to control; type: functional; details: read-out: Survival
Raji [27] = assay: Survival of human Raji cells at 0.01 uM under deem light after 96 hrs by MTT assay relative to control; type: functional; details: read-out: Survival
[28] = Cytotoxicity against human MDA-MB cells under deem light after 96 hrs by MTT assay; type: functional, cell-based
Daudi = assay: Cytotoxicity against human Daudi cells under deem light after 96 hrs by MTT assay; type: functional, cell-based
SiHa [29] = assay: Survival of human SIHA cells at 0.1 uM under deem light after 96 hrs by MTT assay relative to control; type: functional; details: read-out: Survival
[30] = Survival of human 2780.9S cells at 0.1 uM under deem light after 96 hrs by MTT assay relative to control; type: functional; details: read-out: Survival
HeLa [31] = assay: Survival of human HeLa cells at 0.1 uM under deem light after 96 hrs by MTT assay relative to control; type: functional; details: read-out: Survival
K562 [32] = assay: Survival of human K562 cells at 100 uM under deem light after 96 hrs by MTT assay relative to control; type: functional; details: K562, 96 h, read-out: Survival
K562 [33] = assay: Cytotoxicity against human K562 cells under deem light after 96 hrs by MTT assay; type: functional, cell-based; details: K562, 96 h
NCI-H69 [34] = assay: Survival of human H69 cells at 100 uM under deem light after 96 hrs by MTT assay relative to control; type: functional; details: NCI-H69, 96 h, read-out: Survival
[35] = Survival of human 2780.9S cells at 0.01 uM under deem light after 96 hrs by MTT assay relative to control; type: functional; details: read-out: Survival
[36] = Survival of human MDA-MB cells at 0.01 uM under deem light after 96 hrs by MTT assay relative to control; type: functional; details: read-out: Survival
[37] = Survival of human H209 cells at 100 uM under deem light after 96 hrs by MTT assay relative to control; type: functional; details: NCI-H209, 96 h, read-out: Survival
K562 [38] = assay: Survival of human K562 cells at 0.01 uM under deem light after 96 hrs by MTT assay relative to control; type: functional; details: K562, 96 h, read-out: Survival
[39] = Survival of human H209 cells at 0.1 uM under deem light after 96 hrs by MTT assay relative to control; type: functional; details: NCI-H209, 96 h, read-out: Survival
HeLa [40] = assay: Cytotoxicity against human HeLa cells under deem light after 96 hrs by MTT assay; type: functional, cell-based
NCI-H69 [41] = assay: Survival of human H69 cells at 0.1 uM under deem light after 96 hrs by MTT assay relative to control; type: functional; details: NCI-H69, 96 h, read-out: Survival
NCI-H69 [42] = assay: Survival of human H69 cells at 10 uM under deem light after 96 hrs by MTT assay relative to control; type: functional; details: NCI-H69, 96 h, read-out: Survival
[43] = Survival of human 2780.9S cells at 50 uM under deem light after 96 hrs by MTT assay relative to control; type: functional; details: read-out: Survival
K562 [44] = assay: Survival of human K562 cells at 50 uM under deem light after 96 hrs by MTT assay relative to control; type: functional; details: K562, 96 h, read-out: Survival
HeLa [45] = assay: Survival of human HeLa cells at 50 uM under deem light after 96 hrs by MTT assay relative to control; type: functional; details: read-out: Survival
[46] = Survival of human MDA-MB cells at 0.1 uM under deem light after 96 hrs by MTT assay relative to control; type: functional; details: read-out: Survival

Compound: COc1cccc2c1C(=O)c1c(O)c3c(c(O)c1C2=O)C[C@@](O)(C(=O)CO)C[C@@H]3O[C@H]1C[C@H](N)[C@H](O)[C@H](C)O1 [DOXORUBICIN]
- Activity [1]: Non-toxic
- viability at 10 µM (K562 [2]): 22.1%
- viability at 10 µM (HeLa [3]): 20.2%
- viability at 0.01 µM (NCI-H69 [4]): 86.5%
- viability at 0.01 µM (HeLa [5]): 97.5%
- viability at 50 µM [6]: 11.8%
- viability at 0.1 µM (Raji [7]): 106%
- IC50 (SiHa [8]): 0.5 µM
- viability at 10 µM [9]: 50.5%
- viability at 10 µM (SiHa [10]): 4.4%
- viability at 10 µM (Raji [11]): 8.6%
- viability at 50 µM (NCI-H69 [12]): 16.8%
- IC50 (NCI-H69 [13]): 3 µM
- viability at 50 µM (Raji [14]): 2.5%
- viability at 10 µM [15]: 23.1%
- viability at 0.01 µM [16]: 85.6%
- viability at 100 µM [17]: 5%
- IC50 [18]: 15 µM
- viability at 10 µM [19]: 56.9%
- IC50 (Raji [20]): 2 µM
- viability at 50 µM [21]: 5.8%
- viability at 0.1 µM (K562 [22]): 100%
- viability at 100 µM [23]: 7.4%
- viability at 100 µM (Raji [24]): 1.1%
- viability at 100 µM (HeLa [25]): 6.1%
- viability at 50 µM (SiHa [26]): 3.5%
- viability at 0.01 µM (Raji [27]): 110%
- IC50 [28]: 9 µM
- IC50 (Daudi): 0.3 µM
- viability at 0.1 µM (SiHa [29]): 72.2%
- viability at 0.1 µM [30]: 105%
- viability at 0.1 µM (HeLa [31]): 81.4%
- viability at 100 µM (K562 [32]): 7.5%
- IC50 (K562 [33]): 1 µM
- viability at 100 µM (NCI-H69 [34]): 6.6%
- viability at 0.01 µM [35]: 108%
- viability at 0.01 µM [36]: 121%
- viability at 100 µM [37]: 1.5%
- viability at 0.01 µM (K562 [38]): 116%
- viability at 0.1 µM [39]: 85.6%
- IC50 (HeLa [40]): 2 µM
- viability at 0.1 µM (NCI-H69 [41]): 82.2%
- viability at 10 µM (NCI-H69 [42]): 37.7%
- viability at 50 µM [43]: 13.8%
- viability at 50 µM (K562 [44]): 9.5%
- viability at 50 µM (HeLa [45]): 7%
- viability at 0.1 µM [46]: 96.8%
